This note sets out measurements from ChEMBL document CHEMBL5465560, “Selectivity Literature for EUbOPEN Chemogenomic Library” (2024).

The target of experiment [1] is T1, Phosphatidylinositol 3-kinase C2 domain-containing subunit gamma (Homo sapiens) (UniProt O75747).
T1 sequence (whole entry): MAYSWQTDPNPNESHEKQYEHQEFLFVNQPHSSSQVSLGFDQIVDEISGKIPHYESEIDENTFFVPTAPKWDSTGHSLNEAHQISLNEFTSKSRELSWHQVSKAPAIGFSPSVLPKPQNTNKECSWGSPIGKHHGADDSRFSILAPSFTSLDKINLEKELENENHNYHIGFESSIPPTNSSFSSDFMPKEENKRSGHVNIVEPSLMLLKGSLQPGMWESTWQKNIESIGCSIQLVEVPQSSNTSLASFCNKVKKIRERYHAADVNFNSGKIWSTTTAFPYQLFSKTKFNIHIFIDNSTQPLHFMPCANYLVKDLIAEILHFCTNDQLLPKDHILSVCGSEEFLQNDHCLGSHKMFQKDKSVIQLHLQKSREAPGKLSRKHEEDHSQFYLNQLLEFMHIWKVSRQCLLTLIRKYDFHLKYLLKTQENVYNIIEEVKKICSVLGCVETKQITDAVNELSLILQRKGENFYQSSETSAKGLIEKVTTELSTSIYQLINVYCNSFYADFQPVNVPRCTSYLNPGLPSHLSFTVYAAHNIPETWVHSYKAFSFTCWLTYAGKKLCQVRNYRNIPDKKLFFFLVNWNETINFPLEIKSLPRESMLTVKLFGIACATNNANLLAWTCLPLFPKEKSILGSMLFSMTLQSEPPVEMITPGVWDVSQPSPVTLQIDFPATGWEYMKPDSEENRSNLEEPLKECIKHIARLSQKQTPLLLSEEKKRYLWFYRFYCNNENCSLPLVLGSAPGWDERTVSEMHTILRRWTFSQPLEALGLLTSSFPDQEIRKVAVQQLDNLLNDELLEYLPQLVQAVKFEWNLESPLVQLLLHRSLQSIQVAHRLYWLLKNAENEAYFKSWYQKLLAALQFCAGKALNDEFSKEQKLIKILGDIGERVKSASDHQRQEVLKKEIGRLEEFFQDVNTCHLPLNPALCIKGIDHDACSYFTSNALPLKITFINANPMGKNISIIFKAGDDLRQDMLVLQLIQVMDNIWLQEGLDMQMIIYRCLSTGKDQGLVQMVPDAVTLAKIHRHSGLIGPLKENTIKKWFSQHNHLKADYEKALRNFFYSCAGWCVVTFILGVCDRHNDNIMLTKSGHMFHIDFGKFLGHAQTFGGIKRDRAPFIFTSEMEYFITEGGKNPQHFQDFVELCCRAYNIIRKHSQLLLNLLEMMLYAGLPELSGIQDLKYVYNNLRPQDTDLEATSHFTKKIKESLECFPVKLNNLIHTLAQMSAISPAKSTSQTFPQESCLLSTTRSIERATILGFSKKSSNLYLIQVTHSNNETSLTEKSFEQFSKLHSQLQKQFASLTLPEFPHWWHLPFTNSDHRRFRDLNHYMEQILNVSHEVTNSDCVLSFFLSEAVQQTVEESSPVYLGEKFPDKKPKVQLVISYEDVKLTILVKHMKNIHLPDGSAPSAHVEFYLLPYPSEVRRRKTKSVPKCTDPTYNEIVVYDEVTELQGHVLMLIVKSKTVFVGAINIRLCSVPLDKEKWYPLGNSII
Particulars: at 10 µM.

Experiment [2] concerns the target T2, 3-phosphoinositide-dependent protein kinase 1 (Homo sapiens) (UniProt O15530).
T2 sequence (whole entry): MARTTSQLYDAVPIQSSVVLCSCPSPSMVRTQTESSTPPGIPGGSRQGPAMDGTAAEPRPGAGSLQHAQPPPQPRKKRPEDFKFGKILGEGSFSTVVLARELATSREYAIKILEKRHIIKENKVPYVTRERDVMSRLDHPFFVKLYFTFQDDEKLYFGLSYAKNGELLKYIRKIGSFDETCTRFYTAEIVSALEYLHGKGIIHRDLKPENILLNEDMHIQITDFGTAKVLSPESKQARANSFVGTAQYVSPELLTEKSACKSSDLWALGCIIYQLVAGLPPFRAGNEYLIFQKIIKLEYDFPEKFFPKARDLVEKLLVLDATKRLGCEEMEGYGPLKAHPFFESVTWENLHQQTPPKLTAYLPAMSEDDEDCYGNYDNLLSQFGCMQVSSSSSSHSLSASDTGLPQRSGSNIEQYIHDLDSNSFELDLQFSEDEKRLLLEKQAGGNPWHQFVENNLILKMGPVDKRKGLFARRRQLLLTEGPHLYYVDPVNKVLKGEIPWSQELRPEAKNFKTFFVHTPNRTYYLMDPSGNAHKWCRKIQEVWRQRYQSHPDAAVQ
Briefly: Selectivity interaction (KinomeScan (DiscoverX)) EUB0000092b PDPK1. Particulars: at 10 µM.

Experiment [3] has as its system Epidermal growth factor receptor (Homo sapiens), P00533 [UNDEFINED MUTATION]. Briefly: Selectivity interaction (KinomeScan (DiscoverX)) EUB0000045b EGFR. Conditions: at 10 µM.
For experiment [4], the target named is Dual specificity testis-specific protein kinase 1 (Homo sapiens) (UniProt Q15569). Briefly: Selectivity interaction (KinomeScan (DiscoverX)) EUB0000045b TESK1.
Chain of Dual specificity testis-specific protein kinase 1 (Homo sapiens) (Q15569 whole entry, looked up): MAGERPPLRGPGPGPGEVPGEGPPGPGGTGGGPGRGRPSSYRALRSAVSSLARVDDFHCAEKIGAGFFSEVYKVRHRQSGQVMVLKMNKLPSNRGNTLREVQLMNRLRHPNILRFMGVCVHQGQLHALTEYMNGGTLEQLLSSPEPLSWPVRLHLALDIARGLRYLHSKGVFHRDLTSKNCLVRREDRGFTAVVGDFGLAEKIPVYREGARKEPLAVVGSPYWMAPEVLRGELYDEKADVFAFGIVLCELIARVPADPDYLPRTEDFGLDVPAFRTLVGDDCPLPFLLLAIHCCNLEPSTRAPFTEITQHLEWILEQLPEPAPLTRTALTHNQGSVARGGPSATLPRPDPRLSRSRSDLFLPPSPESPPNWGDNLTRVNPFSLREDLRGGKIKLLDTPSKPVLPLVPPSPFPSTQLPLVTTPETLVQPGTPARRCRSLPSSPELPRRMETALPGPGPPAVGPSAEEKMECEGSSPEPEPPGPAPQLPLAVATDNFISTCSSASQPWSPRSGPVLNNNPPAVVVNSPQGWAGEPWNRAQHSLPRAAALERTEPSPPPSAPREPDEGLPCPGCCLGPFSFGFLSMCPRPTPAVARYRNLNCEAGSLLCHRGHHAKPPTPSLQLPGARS
Experiment [5] deals with Leukocyte tyrosine kinase receptor (Homo sapiens, UniProt P29376). Briefly: Selectivity interaction (KinomeScan (DiscoverX)) EUB0000666a LTK. Particulars: at 10 µM.
Chain of Leukocyte tyrosine kinase receptor (P29376 whole entry): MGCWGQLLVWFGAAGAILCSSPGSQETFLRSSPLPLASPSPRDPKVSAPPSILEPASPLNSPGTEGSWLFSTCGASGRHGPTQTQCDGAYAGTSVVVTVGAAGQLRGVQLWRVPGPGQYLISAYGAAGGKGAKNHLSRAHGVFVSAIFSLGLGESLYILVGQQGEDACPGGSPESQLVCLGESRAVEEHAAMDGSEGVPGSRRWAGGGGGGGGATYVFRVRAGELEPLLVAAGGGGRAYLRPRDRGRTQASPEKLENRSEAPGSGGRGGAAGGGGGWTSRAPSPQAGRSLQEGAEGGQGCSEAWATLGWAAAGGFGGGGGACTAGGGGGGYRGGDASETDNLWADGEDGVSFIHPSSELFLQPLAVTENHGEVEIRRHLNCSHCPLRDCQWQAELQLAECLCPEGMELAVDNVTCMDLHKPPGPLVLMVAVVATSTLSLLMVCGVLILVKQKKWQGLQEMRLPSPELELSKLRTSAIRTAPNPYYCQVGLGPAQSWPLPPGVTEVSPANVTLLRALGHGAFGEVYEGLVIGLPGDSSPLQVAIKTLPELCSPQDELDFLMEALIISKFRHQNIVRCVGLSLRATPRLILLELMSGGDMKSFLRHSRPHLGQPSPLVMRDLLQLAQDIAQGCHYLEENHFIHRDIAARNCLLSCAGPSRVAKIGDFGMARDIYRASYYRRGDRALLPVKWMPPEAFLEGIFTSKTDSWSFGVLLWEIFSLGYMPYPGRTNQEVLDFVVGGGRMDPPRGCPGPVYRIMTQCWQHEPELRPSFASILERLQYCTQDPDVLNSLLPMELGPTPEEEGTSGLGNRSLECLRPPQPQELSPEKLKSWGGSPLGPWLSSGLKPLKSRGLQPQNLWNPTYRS
The target of experiment [6] is T3, Aurora kinase C (Homo sapiens) (UniProt Q9UQB9).
T3 sequence (whole entry): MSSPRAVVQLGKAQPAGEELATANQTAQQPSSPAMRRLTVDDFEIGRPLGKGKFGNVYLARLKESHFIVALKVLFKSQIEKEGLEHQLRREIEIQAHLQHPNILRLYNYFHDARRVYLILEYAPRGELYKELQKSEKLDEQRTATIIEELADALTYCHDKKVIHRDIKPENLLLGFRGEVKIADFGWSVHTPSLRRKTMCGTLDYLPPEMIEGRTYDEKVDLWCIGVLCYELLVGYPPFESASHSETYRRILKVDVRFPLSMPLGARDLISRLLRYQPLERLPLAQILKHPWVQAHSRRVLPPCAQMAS
Briefly: Selectivity interaction (KinomeScan (DiscoverX)) EUB0000607a AURKC. Particulars: at 10 µM.

Experiment [7] addresses Serine/threonine-protein kinase tousled-like 2 (Homo sapiens) (UniProt Q86UE8). Briefly: Selectivity interaction (ActivX KiNativ screen (kinase selectivity in THP-1 cell lysates)) EUB0000639a TLK2. Format: subcellular. Conditions: lysate, at 0.01 µM.
The target in experiment [8] is MAP kinase-activated protein kinase 2 (Homo sapiens, UniProt P49137). Briefly: Selectivity interaction (KinomeScan (DiscoverX)) EUB0000618a MAPKAPK2. Conditions: at 10 µM.
Chain of MAP kinase-activated protein kinase 2 (P49137 whole entry, looked up): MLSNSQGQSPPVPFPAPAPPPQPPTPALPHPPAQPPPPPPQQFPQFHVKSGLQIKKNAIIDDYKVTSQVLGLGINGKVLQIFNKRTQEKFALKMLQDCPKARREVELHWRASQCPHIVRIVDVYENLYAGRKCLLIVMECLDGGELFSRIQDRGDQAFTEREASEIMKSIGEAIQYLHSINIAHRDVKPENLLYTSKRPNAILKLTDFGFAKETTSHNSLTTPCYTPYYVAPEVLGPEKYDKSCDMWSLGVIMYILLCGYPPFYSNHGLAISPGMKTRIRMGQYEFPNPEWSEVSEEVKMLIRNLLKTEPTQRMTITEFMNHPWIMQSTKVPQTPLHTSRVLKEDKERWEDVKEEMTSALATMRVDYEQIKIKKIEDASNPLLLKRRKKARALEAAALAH
For experiment [9], the target named is Serine/threonine-protein kinase Nek7 (Homo sapiens) (UniProt Q8TDX7). Briefly: Selectivity interaction (KinomeScan (DiscoverX)) EUB0000618a NEK7. Conditions: at 10 µM.
Chain of Serine/threonine-protein kinase Nek7 (Homo sapiens) (Q8TDX7 whole entry, looked up): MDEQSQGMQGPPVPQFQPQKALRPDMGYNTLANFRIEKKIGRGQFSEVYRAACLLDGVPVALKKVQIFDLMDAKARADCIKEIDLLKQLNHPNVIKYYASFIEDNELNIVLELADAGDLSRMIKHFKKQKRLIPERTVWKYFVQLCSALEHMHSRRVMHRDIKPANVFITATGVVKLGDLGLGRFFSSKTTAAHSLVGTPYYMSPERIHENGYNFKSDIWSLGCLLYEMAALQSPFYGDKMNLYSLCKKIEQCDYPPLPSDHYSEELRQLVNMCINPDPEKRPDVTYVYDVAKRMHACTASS

Chain of Epidermal growth factor receptor (Homo sapiens), P00533 [UNDEFINED MUTATION] (P00533 whole entry, looked up, change not shown): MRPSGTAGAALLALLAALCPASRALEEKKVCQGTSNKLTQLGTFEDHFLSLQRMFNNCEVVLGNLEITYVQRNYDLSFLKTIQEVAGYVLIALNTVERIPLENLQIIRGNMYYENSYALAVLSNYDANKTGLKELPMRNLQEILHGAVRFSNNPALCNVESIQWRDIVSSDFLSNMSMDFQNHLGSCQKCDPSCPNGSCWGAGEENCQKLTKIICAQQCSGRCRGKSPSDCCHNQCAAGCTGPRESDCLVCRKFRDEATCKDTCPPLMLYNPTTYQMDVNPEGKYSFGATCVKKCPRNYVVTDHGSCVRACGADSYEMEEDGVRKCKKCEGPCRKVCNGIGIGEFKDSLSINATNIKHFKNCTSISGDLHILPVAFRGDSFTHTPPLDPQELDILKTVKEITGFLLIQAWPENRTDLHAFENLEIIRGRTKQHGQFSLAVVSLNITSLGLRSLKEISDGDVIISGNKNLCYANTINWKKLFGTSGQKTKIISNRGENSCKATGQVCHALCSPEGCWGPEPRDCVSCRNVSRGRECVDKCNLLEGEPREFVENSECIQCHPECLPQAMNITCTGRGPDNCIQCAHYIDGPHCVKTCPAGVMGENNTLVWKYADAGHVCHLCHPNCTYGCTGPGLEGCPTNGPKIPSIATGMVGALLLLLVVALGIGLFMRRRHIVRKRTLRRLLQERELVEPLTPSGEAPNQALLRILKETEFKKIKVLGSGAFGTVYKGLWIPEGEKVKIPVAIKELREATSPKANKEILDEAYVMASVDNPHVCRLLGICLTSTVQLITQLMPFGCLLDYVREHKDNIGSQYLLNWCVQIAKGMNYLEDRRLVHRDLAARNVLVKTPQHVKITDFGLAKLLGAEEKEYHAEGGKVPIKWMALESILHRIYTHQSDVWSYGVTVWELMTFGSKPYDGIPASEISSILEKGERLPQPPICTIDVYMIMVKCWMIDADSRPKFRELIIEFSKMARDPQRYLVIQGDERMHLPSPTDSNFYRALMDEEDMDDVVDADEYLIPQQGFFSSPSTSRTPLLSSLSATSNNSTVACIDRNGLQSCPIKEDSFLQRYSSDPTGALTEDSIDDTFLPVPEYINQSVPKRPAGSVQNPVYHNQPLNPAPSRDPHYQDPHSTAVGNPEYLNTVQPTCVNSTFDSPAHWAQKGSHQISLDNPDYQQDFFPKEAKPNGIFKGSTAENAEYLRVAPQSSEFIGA
Chain of Serine/threonine-protein kinase tousled-like 2 (Homo sapiens) (Q86UE8 whole entry, looked up): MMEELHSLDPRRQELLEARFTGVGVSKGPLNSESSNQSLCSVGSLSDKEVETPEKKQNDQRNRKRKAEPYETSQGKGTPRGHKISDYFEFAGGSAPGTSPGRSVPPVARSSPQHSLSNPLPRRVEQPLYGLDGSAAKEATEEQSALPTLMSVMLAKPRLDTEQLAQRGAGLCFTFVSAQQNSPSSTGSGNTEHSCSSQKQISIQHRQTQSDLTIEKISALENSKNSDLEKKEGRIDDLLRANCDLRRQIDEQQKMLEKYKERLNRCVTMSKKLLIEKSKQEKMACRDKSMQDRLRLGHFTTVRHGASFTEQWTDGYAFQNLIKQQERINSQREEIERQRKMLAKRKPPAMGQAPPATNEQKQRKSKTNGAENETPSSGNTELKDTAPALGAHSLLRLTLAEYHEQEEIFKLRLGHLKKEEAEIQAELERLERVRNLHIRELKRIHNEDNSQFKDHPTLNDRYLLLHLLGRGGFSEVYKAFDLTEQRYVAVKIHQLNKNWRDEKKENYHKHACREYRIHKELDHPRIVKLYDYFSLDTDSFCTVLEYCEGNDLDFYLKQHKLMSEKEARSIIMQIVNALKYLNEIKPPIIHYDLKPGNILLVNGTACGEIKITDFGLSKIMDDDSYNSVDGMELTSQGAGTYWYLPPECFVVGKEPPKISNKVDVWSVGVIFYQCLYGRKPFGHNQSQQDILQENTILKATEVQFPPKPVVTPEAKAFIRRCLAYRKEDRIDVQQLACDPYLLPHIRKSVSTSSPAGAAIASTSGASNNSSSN

Compound `Cc1cc([C@@H](C)Nc2ccccc2C(=O)O)c2nc(N3CCOCC3)cc(=O)n2c1` [AZD-6482] displayed a % of control in [1] of 7%.

The compound `CCC(=O)N1CCN(c2ccc(-n3c(=O)ccc4cnc5ccc(-c6cnc7ccccc7c6)cc5c43)cc2C(F)(F)F)CC1` registered a % of control in experiment [2] of 100%.

Consider `C=CC(=O)Nc1cc(-n2c(=O)ccc3cnc4ccc(-c5ccc(NS(C)(=O)=O)cc5)cc4c32)ccc1C`, for which the % of control in [3] stood at 65%; in [4] (at 1 µM), 94%; in experiment [4] (at 10 µM), 98%.

As to `O=C(NOC[C@H](O)CO)c1ccc(F)c(F)c1Nc1ccc(I)cc1F`, the % of control in experiment [5] is 100%.

For the compound `CNC(=O)Nc1ccc(-c2nc(N3CC4CCC(C3)O4)c3cnn(C4CCC5(CC4)OCCO5)c3n2)cc1`, the % of control in experiment [6] was found to be 86%.

Regarding `CC[C@@H]1[C@H](F)C(=O)N[C@@H]1COc1nccc2cc(C(N)=O)c(OC)cc12` [ZIMLOVISERTIB], the % of inhibition in [7] worked out at 0.7%.

Take `O[C@H]1CC[C@H](Nc2ncc3nc(Nc4c(F)cc(F)cc4F)n([C@H]4CCOC4)c3n2)CC1`: the % of control turned out to be 71% in [8] and 95% in [9].
